In ChEMBL document CHEMBL5528015, “Structure-based design of SARS-CoV-2 papain-like protease inhibitors” (Eur J Med Chem, 2024):
Active and inactive are the calls of the source. The calls are words filed in the database; no cut-off is given here.

Key:
[1] = target: Replicase polyprotein 1ab (Severe acute respiratory syndrome coronavirus 2) (UniProt P0DTD1); conditions: BetaCoV/Wuhan/WIV04/2019, dose 40.0 µM, time 30.0 min
[2] = Cytotoxicity against African green monkey Vero E6 cells incubated for 48 hrs by neutral red uptake assay; type: toxicity, cell-based, Vero C1008; conditions: chlorocebus sabaeus
[3] = mouse, microsomes, 1 h, 1 µM
[4] = Metabolic stability in mouse liver microsomes assessed as intrinsic clearance at 1 uM measured upto 60 mins in presence of NADPH regenerating system by LC-MS/MS analysis; type: ADME, Microsome; conditions: read-out: CLH
[5] = target: Replicase polyprotein 1ab (Severe acute respiratory syndrome coronavirus 2, UniProt P0DTD1); experiment: biochemical
[6] = in vitro; conditions: mouse, liver microsomes

Structure (SMILES) | CC50 at 48 h [2] | IC50 [5] | also measured
Cc1ccc(OCCN)cc1C(=O)N[C@H](C)c1cccc(-c2ccoc2)c1 | 103 µM |  | Activity [1]: Active; t1/2 [3]: 0.897 h; microsomal CLint at 1 µM [4]: 25.7 µL/min/mg
Cc1ccc(NC2CNC2)cc1CN(C)[C@H](C)c1cccc2ccccc12 | 13.7 µM |  | t1/2 [3]: 1.673 h; microsomal CLint at 1 µM [4]: 13.8 µL/min/mg
C[C@H](c1cccc(-c2cccs2)c1)N(C)Cc1ccc(O)cc1O |  | 5.03 µM | 
Cc1ccc(OCCN)cc1C(=O)N[C@H](C)c1cccc(-c2c[nH]nc2C)c1 |  | 1.96 µM | 
COCCn1cc(-c2cccc([C@@H](C)NC(=O)c3cc(OCCN)ccc3C)c2)cn1 |  | 1.51 µM | 
COc1cc(O)ccc1CN(C)[C@@H](C)c1cccc(-c2ccc(CN3CCCC3)s2)c1 |  | 3 µM | 
Cc1ccc(OCCN)cc1C(=O)N[C@H](C)c1cccc(-c2cn[nH]c2)c1 |  | 1.49 µM | 
Cc1ccc(OCCN)cc1C(=O)N[C@H](C)c1cccc(-c2ccn[nH]2)c1 |  | 1.16 µM | 
Cc1ccc(OCCN)cc1C(=O)N[C@H](C)c1cccc(-c2ccc3c(c2)OCCO3)c1 |  | 0.97 µM | 
Cc1ccc(OCCN)cc1C(=O)N[C@H](C)c1cccc(-c2cnn(Cc3ccccc3)c2)c1 |  | 1.03 µM | 
Cc1ccc(OCCN)cc1C(=O)N[C@H](C)c1cccc(-c2ccc(F)cc2F)c1 |  | 1.54 µM | 
C[C@H](c1cccc(-c2cccs2)c1)N(C)Cc1c[nH]c2cc(F)ccc12 |  | 2.34 µM | 
C[C@H](c1cccc2ccccc12)N(C)Cc1ccc(O)cc1O | 31.5 µM |  | Activity [1]: Active
C[C@H](c1cccc(-c2cccs2)c1)N(C)Cc1ccc2cn[nH]c2c1 |  | 2.36 µM | 
C[C@H](c1cccc2ccccc12)N(C)Cc1ccc2[nH]ncc2c1 | 35.5 µM |  | 
Cc1ccc(OCCN)cc1C(=O)N[C@H](C)c1cccc(-c2cnn(C)c2)c1 |  | 0.96 µM | 
Cc1ccc(OCCN)cc1C(=O)N[C@H](C)c1cccc(-c2ccn(C)c2C)c1 |  | 3.35 µM | 
Cc1ccc(OCCN)cc1C(=O)N[C@H](C)c1cccc(-c2cnc(N(C)C)nc2)c1 |  | > 20 µM | 
C[C@H](c1cccc2ccccc12)N(C)Cc1ccc2cn[nH]c2c1 | 28.3 µM |  | 
C[C@H](c1cccc(-c2ccc(CN3CCCC3)s2)c1)N(C)Cc1ccc2[nH]ncc2c1 |  | 7.09 µM | 
C[C@H](c1cccc(-c2ccc(CN3CCCC3)s2)c1)N(C)Cc1cccc2[nH]ccc12 |  | 3.39 µM | 

Structure (SMILES) | CC50 at 48 h [2] | IC50 [5] | also measured
Cc1ccc(OCCN)cc1C(=O)N[C@H](C)c1cccc(-c2cccs2)c1 | 15.2 µM |  | t1/2 [3]: > 2.42 h; microsomal CLint at 1 µM [4]: < 9.6 µL/min/mg
Cc1ccc(OCCN)cc1C(=O)N[C@H](C)c1cccc(-c2ccc(CNC3CC3)s2)c1 |  | 0.94 µM | 
Cc1ccc(OCCN)cc1C(=O)N[C@H](C)c1cccc(-c2ccc(C#N)s2)c1 | 15 µM |  | 
Cc1ccc(O)cc1CN(C)[C@H](C)c1cccc2ccccc12 | 14.4 µM |  | microsomal CLint at 1 µM [4]: 2490 µL/min/mg
Cc1ccc(OCCN)cc1C(=O)N[C@H](C)c1cccc(-c2ccc(F)cc2)c1 |  | 1.22 µM | 
Cc1ccc(OCCN)cc1C(=O)N[C@H](C)c1cccc2ccccc12 |  |  | t1/2 [3]: > 2.42 h; microsomal CLint at 1 µM [4]: < 9.6 µL/min/mg
Cc1ccc(OCCN)cc1C(=O)N[C@H](C)c1cccc(-c2ccc(C#N)cc2)c1 |  | 0.89 µM | 
COc1cc([N+](=O)[O-])ccc1CN(C)[C@H](C)c1cccc2ccccc12 | > 100 µM |  | Activity [1]: Active
C[C@H](c1cccc2ccccc12)N(C)Cc1c[nH]c2cc(F)ccc12 | 31.8 µM |  | 
Cc1ccc(OCCN)cc1C(=O)N[C@H](C)c1cccc(-c2ccsc2)c1 | > 30 µM |  | t1/2 [3]: 1.958 h; microsomal CLint at 1 µM [4]: 11.8 µL/min/mg
Cc1ccc(OCCN)cc1C(=O)N[C@H](C)c1cccc(-c2ccccc2O)c1 |  | 2.25 µM | 
Cc1ccc(OCCN)cc1C(=O)N[C@H](C)c1cccc(-c2c(C)noc2C)c1 |  | 1.48 µM | 
Cc1ccc(OCCN)cc1C(=O)N[C@H](C)c1cccc(-c2cnn(C(F)F)c2)c1 |  | 1.14 µM | 
Cc1ccc(OCCN)cc1C(=O)N[C@H](C)c1cccc(-c2ccc(O)cc2)c1 | 45.2 µM |  | t1/2 [3]: 0.962 h; microsomal CLint at 1 µM [4]: 24 µL/min/mg
C[C@H](c1cccc2ccccc12)N(C)Cc1ccc(O)cc1 | 23.7 µM |  | half-life at 1 h, 1 µM [6]: 1.8 min; microsomal CLint at 1 µM [4]: 779 µL/min/mg
Cc1ccc(OCCN)cc1C(=O)N[C@H](C)c1cccc(-c2ccc3c(c2)CCO3)c1 |  | 1.08 µM | 
C[C@H](c1cccc2ccccc12)N(C)Cc1c[nH]c2ccc(F)cc12 | 32.5 µM |  | 
C[C@H](c1cccc(-c2cccs2)c1)N(C)Cc1c[nH]c2ccc(F)cc12 |  | 2.66 µM | 
C[C@H](c1cccc2ccccc12)N(C)Cc1c[nH]c2ccccc12 | 24.7 µM |  | 
Cc1ccc(OCCN)cc1C(=O)N[C@H](C)c1cccc(-c2ccnn2C)c1 |  | 2.78 µM | 
